Common to all, as to test: NCI tumour cell line growth inhibition, 48 h
Assay [1] has as its system SNB-19 CNS.
For assay [2], the system named is OVCAR-8 ovarian.
For assay [3], the system named is SK-MEL-5 melanoma.
In assay [4] the test system is NCI-H460 lung.
Assay [5] relates to SK-OV-3 ovarian.
Assay [6] relates to NCI-H23 lung.
The test system of assay [7] is HCC-2998 colon.
The test system of assay [8] is MDA-MB-231 breast.
Assay [9] relates to MOLT-4 leukemia.
The test system of assay [10] is SW-620 colon.

Several values for one entry are separate records, joined by “and”; a condition that tells them apart may be missing. Equal entries are not always repeated.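 Interpolation was linear, between the two tested concentrations surrounding the appropriate level; five concentrations were tested over 48 hours in 96-well plates. GI50 = concentration required for 50% inhibition of growth. At the TGI there is no net growth.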

Take `C=C1C(=O)O[C@H]2C[C@@H]1CC/C(C)=C/CC/C(C)=C/CC[C@H]2C`: the GI50 was 23.2 µM in assay [1]; 15.7 µM in assay [2]; 17.3 µM in assay [3]; 23.2 µM in assay [4]; 19.2 µM in [5]; 20.6 µM in assay [6]. Further, the GI50 in [7] is 14.5 µM; in [8], 18.9 µM; in assay [9], 10.6 µM; in assay [10], 14.7 µM. The TGI in assay [1] is 55.2 µM; in assay [2] it was 39.3 µM; in [3] it was 32.2 µM; in assay [4] it was above 59 µM; in assay [5], 38.9 µM; in [6], 41 µM. In addition, the TGI is 28.9 µM in [7], 38.9 µM in assay [8], above 24.6 µM in assay [9] and 45.9 µM in assay [10].

Turning to `C#CCOc1cccc(-c2ncnc3cc(NC(=O)CCl)ccc23)c1`, the GI50 in [1] is 1.14 µM; in assay [2] it was 0.168 µM; in assay [3] it was 0.684 µM; in assay [4] it was 0.038 µM; in assay [5], 2.22 µM; in assay [6] it was 0.886 µM. Besides, the GI50 in assay [7] is 1.09 µM; in assay [8] it was 0.481 µM; in assay [9], 0.043 µM; in assay [10], 0.0221 µM. Besides, the TGI in assay [1] was found to be 4.86 µM; in assay [2], 6.59 µM; in [3], 2.19 µM; in assay [4] it was 1.45 µM; in assay [5], 7.38 µM; in assay [6] it was 3.14 µM. Also, the TGI in assay [7] is 2.75 µM; in assay [8], 4.57 µM; in assay [9], above 100 µM; in assay [10] it was 1.51 µM.

For `COc1ccc(C(=O)/C=C/c2ccc(C)cc2)cc1OC`, the GI50 in assay [1] is 12.8 µM; in [2], 11.8 µM; in [3], 12.5 µM; in assay [4], 7.77 µM; in [5], 14 µM; in [6], 10.4 µM. The GI50 is 14.4 µM in assay [7], 14.3 µM in [8], 16.6 µM in assay [9] and 10.2 µM in assay [10]. Moreover, the TGI in assay [1] was determined as 25.5 µM; in [2], 27.6 µM; in assay [3], 25 µM; in assay [4], 20.5 µM; in [5], 27.4 µM; in [6] it was 22.8 µM. Also, the TGI in [7] came out at 27.4 µM; in [8] it was 33.1 µM; in [9], 47.2 µM; in assay [10], 21.8 µM.

`FC(F)c1nc2ccccc2n1-c1nc(N2CCOCC2)nc(N2CCOCC2)n1`: the GI50 in assay [1] is 1.28 µM and 1.74 µM; in assay [2], 0.639 µM and 0.492 µM; in [3], 0.453 µM and 0.338 µM; in [4], 0.276 µM and 0.303 µM; in [5], 0.175 µM and 0.27 µM; in assay [6], 0.492 µM and 0.617 µM. The GI50 in assay [7] is 0.497 µM and 0.807 µM; in assay [8], 0.448 µM and 2.13 µM; in assay [9], 0.347 µM; in [10], 0.573 µM and 1.16 µM. Moreover, the TGI in assay [1] was above 100 µM; in assay [2], above 100 µM; in assay [3] it was 2.11 µM and 2.37 µM; in assay [4] it was above 100 µM; in assay [5], 1.03 µM and 1.94 µM; in assay [9], above 100 µM. In [10], the TGI was above 100 µM.

For the compound `Oc1[nH]c2ccccc2c1N=Nc1ccccn1`, the TGI in assay [1] is above 100 µM; in assay [2] it was 26.3 µM; in assay [3], above 100 µM; in assay [4], 35.6 µM; in [5], 38.1 µM; in assay [6], above 100 µM. Moreover, the TGI is 82.8 µM in assay [7], 38.1 µM in assay [8], above 100 µM in assay [9] and above 100 µM in assay [10].

`C=C1C(=O)O[C@@H]2C[C@@H](C)[C@@H]3C=CC(=O)[C@@]3(C)[C@@H](OC(=O)CC(=O)O[C@H]3[C@@H]4C(=C)C(=O)O[C@@H]4C[C@@H](C)[C@@H]4C=CC(=O)[C@]43C)[C@H]12`: the TGI in assay [1] was determined as 1.73 µM; in assay [2] it was 0.0591 µM; in [3], 0.215 µM; in assay [4] it was 0.361 µM; in assay [5], 0.785 µM; in assay [6] it was 0.123 µM. Also, the TGI was 0.303 µM in assay [7], 1.32 µM in [8], below 0.0304 µM in assay [9] and 0.0326 µM in assay [10].

`C=C1C(=O)O[C@H]2[C@H]1CC/C(COC(=O)CSCCSCC(=O)OC/C1=C/CC[C@@]3(C)O[C@H]3[C@H]3OC(=O)C(=C)[C@@H]3CC1)=C\CC[C@@]1(C)O[C@@H]21`: the GI50 is 2.85 µM in [1]; 1.97 µM in [2]; 1.88 µM in assay [3]; 2.28 µM in [4]; 4.48 µM in assay [5]; 2.25 µM in assay [6]. Besides, the GI50 in assay [7] is 1.85 µM; in [8] it was 1.58 µM; in assay [9], 1.16 µM; in assay [10] it was 1.48 µM. Further, the TGI was 9.61 µM in assay [1]; 4.6 µM in assay [2]; 3.72 µM in assay [3]; 6.43 µM in assay [4]; 15.3 µM in [5]; 5.38 µM in assay [6]. Moreover, the TGI in [7] came to 3.52 µM; in [8], 3.14 µM; in [9], 3.89 µM; in [10], 3.45 µM.

Regarding `COC(=O)c1c2c(c[n+]([O-])c1C)C(=O)C=CC2=O`, the GI50 in [1] is 3.02 µM; in assay [2] it was 2.93 µM; in [3], 1.74 µM; in assay [4], 12.8 µM; in [5], 19.3 µM; in assay [6] it was 1.88 µM. Besides, the GI50 in assay [7] is 4.25 µM; in assay [8], 2.01 µM; in [9], 2.43 µM; in assay [10], 2.08 µM. Also, the TGI was 10.9 µM in [1]; 10.8 µM in assay [2]; 3.15 µM in assay [3]; 28 µM in assay [4]; 51.1 µM in [5]; 4.26 µM in assay [6]. The TGI amounted to 15.5 µM in assay [7], 5.46 µM in assay [8], 6.21 µM in assay [9] and 5.36 µM in assay [10].

Values taken from PubChem BioAssay (NCI).
